According to patent US11725001B2, “Bicyclic compound and use thereof” (SK BIOPHARMACEUTICALS CO., LTD., priority 2019, dated 2023):
pIC50: −log10 of the molar value.

Each compound was assayed against PRMT5-MEP50 enzyme complex (Homo sapiens (Human), UniProt O14744) (assay: PRMT5 enzyme activity in vitro assay (methylation of histone H4R3, ELISA absorbance at 450 nm)). Settings: SAM, histone H4 peptide, 2 hours at room temperature, 8 points from 10 μM to 0.128 nM.
Type: biochemical
Experimental: Method for Measuring Enzyme Activity
In vitro assay: PRMT5-MEP50 enzyme complex, cofactor S-adenosylmethionine (SAM) and histone H4 peptide were reacted in vitro, and methylation of arginine (H4R3)—which is the third amino acid of histone H4—was measured in order to measure the enzyme activity of PRMT5.
S-adenosylmethionine was purchased from NEB (New England Biolabs, USA, Catalog No. B9003S).
Experimental procedure: The histone H4 peptide was diluted with carbonate-bicarbonate buffer and prepared to 100 μg/mL, and then dispensed onto the plate per 100 μL and reacted at 37° C. for 1 hour. PRMT5-MEP50 enzyme complex and S-adenosylmethionine were diluted with histone methyltransferase reaction buffer to prepare 5 μg/mL and 2 μM, respectively, and then 20 μL of PRMT5-MEP50 enzyme complex and 25 μL of S-adenosylmethionine were dispensed onto the plate prepared above. 5 μL of the compound diluted with 10% dimethyl sulfoxide solution was added thereto and reacted at room temperature for 2 hours (final volume=50 μL). […] After preparing the primary antibody by diluting 1:2000 with blocking buffer, 100 μL was added to the plate and reacted at room temperature for 1 hour. […] Then, the absorbance at 450 nm was measured to calculate the IC50 value of the compound. […]

PRMT5-MEP50 enzyme complex, sequence (O14744 2-637): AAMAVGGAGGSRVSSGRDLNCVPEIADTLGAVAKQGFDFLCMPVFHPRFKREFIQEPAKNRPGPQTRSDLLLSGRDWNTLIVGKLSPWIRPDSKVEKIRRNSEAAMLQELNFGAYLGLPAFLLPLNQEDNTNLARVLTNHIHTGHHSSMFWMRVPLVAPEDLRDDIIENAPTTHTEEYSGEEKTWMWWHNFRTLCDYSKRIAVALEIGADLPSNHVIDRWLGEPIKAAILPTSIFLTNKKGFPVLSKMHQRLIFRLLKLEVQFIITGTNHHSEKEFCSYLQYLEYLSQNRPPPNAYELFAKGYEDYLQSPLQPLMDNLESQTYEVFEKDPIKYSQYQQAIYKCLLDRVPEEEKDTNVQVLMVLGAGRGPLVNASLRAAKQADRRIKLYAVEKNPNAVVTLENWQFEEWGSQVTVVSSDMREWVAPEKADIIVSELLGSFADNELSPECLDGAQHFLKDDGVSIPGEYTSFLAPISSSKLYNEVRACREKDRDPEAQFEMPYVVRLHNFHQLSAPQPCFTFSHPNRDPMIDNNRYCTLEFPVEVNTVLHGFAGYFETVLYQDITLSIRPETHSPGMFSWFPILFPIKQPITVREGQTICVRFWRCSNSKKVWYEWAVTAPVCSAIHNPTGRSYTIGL
PRMT5-MEP50 enzyme complex, sequence (Q9BQA1 2-342 partner): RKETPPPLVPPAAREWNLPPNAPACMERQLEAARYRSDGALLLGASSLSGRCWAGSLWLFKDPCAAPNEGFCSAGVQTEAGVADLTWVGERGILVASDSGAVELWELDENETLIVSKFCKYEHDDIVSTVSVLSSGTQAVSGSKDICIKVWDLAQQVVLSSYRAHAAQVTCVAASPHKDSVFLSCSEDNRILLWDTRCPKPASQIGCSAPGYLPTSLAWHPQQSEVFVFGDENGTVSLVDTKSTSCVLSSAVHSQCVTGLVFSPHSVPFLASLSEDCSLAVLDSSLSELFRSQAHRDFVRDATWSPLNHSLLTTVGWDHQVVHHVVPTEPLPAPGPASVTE

| pIC50 | Structure (SMILES) |
| --- | --- |
| 6.00 to 7.00 | CCN1C(=O)CN(C[C@H](O)CN2CCc3ccccc3C2)C(=O)c2ccc(Br)cc21 [Example 158, 8-bromo-4-[(2R)-3-(3,4-dihydro-1H-isoquinolin-2-yl)-2-hydroxy-propyl]-1-ethyl-3H-1,4-benzodiazepin-2,5-dione] |
| 6.00 to 7.00 | COc1ccc2c(c1)OCCN(CC(O)CN1CCc3ccccc3C1)C2=O (centres unmarked) [Example 1, 4-[3-(3,4-dihydro-1H-isoquinolin-2-yl)-2-hydroxy-propyl]-8-methoxy-2,3-dihydro-1,4-benzoxazepin-5-one] |

These compounds were tested on SDMA levels in U87MG tumor (assay: Test for in vivo target inhibitory activity (SDMA levels in U87MG tumor)). Settings: U87MG tumor implanted subcutaneously in nude mice, oral 25 or 50 mg/kg 1-2 times daily for one week.
Experimental: Test for In Vivo Target Inhibitory Activity
After U87MG tumor cells were implanted subcutaneously in nude mice, a PRMT5 inhibitor was administered orally (25 or 50 mg/kg) 1-2 times daily for one week, and then the degree to which SDMA levels in the tumor decreased was measured.
Reagents: Bradford's solution (Catalog No. 500-0006) was purchased from Bio-rad (USA). SDMA antibody (Catalog No. 13222s) was purchased from Cell Signaling Technology (USA). SmD3 antibody (Catalog No. ap12451a) was purchased from Abgent (USA), and secondary antibody (Catalog No. ab6721) and TMB substrate (Catalog No. ab210902) were purchased from Abcam (UK).
Experimental procedure: The tumor tissues transplanted into the mice were excised, the cells were lysed, and then quantified with Bradford's solution. 5-10 μg of protein per sample was diluted with carbonate-bicarbonate buffer and dispensed into a 96-well plate and reacted at room temperature for 2 hours. After washing with phosphate buffered saline (PBST) containing 0.05% Tween-20 3 times, 200 μL of PBST containing 5% bovine serum albumin (BSA-PBST) was added and reacted at room temperature for 2 hours. After washing with PBST 3 times, the SDMA antibody and the SmD3 antibody were diluted in BSA-PBST, and 100 μL of each was dispensed onto the plate and reacted at 4° C. overnight. After washing with PBST 3 times the next day, 100 μL of the secondary antibody diluted in BSA-PBST was added and reacted at room temperature for 1 hour. After washing with PBST 3 times, 100 μL of TMB substrate was added and reacted at room temperature for 10-20 minutes, and 100 μL of 1N sulfuric acid solution was added to terminate the reaction. Then, the absorbance at 450 nm was measured to calculate the degree of SDMA inhibition by the compound. (+++: more than 70%, ++: more than 30% and 70% or less, +: 30% or less)

| Structure (SMILES) | SDMA inhibition (%) |
| --- | --- |
| O=C1c2ccc(CN3CCOCC3)cc2OCCN1C[C@H](O)CN1CCc2ccccc2C1 [Example 22, 4-[(2R)-3-(3,4-dihydro-1H-isoquinolin-2-yl)-2-hydroxy-propyl]-8-(morpholinomethyl)-2,3-dihydro-1,4-benzoxazepin-5-one] | +++ (+++: more than 70%) |
| O=C1c2ccc(OC3CCN(C4COC4)CC3)cc2OCCN1C[C@H](O)CN1CCc2ccccc2C1 [Example 92, 4-[(2R)-3-(3,4-dihydro-1H-isoquinolin-2-yl)-2-hydroxy-propyl]-8-[[1-(oxetan-3-yl)-4-piperidyl]oxy]-2,3-dihydro-1,4-benzoxazepin-5-one] | +++ (+++: more than 70%) |
| CN1CCC(Oc2ccc3c(c2)OC(C)(C)CN(C[C@H](O)CN2CCc4ccccc4C2)C3=O)CC1 [Example 112, 4-[(2R)-3-(3,4-dihydro-1H-isoquinolin-2-yl)-2-hydroxy-propyl]-2,2-dimethyl-8-[(1-methyl-4-piperidyl)oxy]-3H-1,4-benzoxazepin-5-one] | +++ (+++: more than 70%) |
| O=C1c2ccc(Br)cc2CCCN1C[C@H](O)CN1CCc2ccccc2C1 [Example 155, 7-bromo-2-[(2R)-3-(3,4-dihydro-1H-isoquinolin-2-yl)-2-hydroxy-propyl]-4,5-dihydro-3H-2-benzazepin-1-one] | + (+: 30% or less) |
| CCN1CCC(Oc2ccc3c(c2)OCCN(C[C@H](O)CN2CCc4ccccc4C2)C3=O)CC1 [Example 88, 4-[(2R)-3-(3,4-dihydro-1H-isoquinolin-2-yl)-2-hydroxy-propyl]-8-[(1-ethyl-4-piperidyl)oxy]-2,3-dihydro-1,4-benzoxazepin-5-one] | +++ (+++: more than 70%) |
| CN1CCC(Oc2ccc3c(c2)OCCN(C[C@H](O)CN2CCc4ccccc4C2)C3=O)CC1 [Example 87, 4-[(2R)-3-(3,4-dihydro-1H-isoquinolin-2-yl)-2-hydroxy-propyl]-8-[(1-methyl-4-piperidyl)oxy]-2,3-dihydro-1,4-benzoxazepin-5-one] | +++ (+++: more than 70%) |
